Measured values taken from patent US20100209484A1, “Transdermal Triptan Delivery System” (priority 2009, published 2010).
Like-named read-outs stand apart in the source and are kept apart here. Values belong to the compound of their own block, whether it stands above or below them.

Legend:
[1] = cited from earlier work
[2] = cited from earlier work; remark: listed apart in the source
[3] = Solubility of zolmitriptan in pressure sensitive adhesive matrixes; assay type: physicochemical; settings: silicone and PIB adhesive matrixes
[4] = Physical observation of patches by eye or microscope; assay type: physicochemical
Description: Permeation is increased for a given concentration of triptan if the triptan is in solution in the matrix. The patches of Table 9 were stored at the room temperature for the designated period of time then observed by eye or/and a microscope. No crystals or white spots have been observed, and the patches are clear. […] This function has not previously been known for this class of compounds.

[5] = tested on: isolated hairless mouse skin; experiment: Skin permeation rate, flow-through diffusion cells; assay type: in vitro ADME; settings: for Flux / Lag time: n = 3
Procedure: Skin permeation rates of various zolmitriptan/enhancer formulations were determined using flow through diffusion cells. Permeation experiments were done on isolated hairless mouse skin. A system comprising a multi channel peristaltic pump, a fraction collector, a circulating water bath and flow-through diffusion cells was used. Each flow-through cell had two arms, which allowed the receiver cell medium pumped to a fraction collector. The diffusion cell temperature was maintained at 37° C. by circulating water through the outer part of jacketed receiver cell. The surface area of receiver cell opening as 2 cm^2, and its volume was 5.5 ml Skin was excised from hairless mouse that was sacrificed with diethyl ether. Subcutaneous fat was removed with scissors and scalpel. Each of the flow-through diffusion cell components was connected via silicone rubber tubing with an internal diameter of 0.015 inches. The receiver cell was filled with a pH 6 buffer solution and the media stirred by Teflon-coated magnetic bar. The transdermal device was placed on the stratum corneum and the excised skin was mounted onto each receiver cell. And O-ring and cell top was placed on the top of each skin. These components are then clamped. The amount of drug permeated across the skin was calculated from the cumulative release. The samples were collected every 4 hours for 24 hours and assayed by HPLC. This method was used to measure skin permeation rates referred to as transdermal flux or flux in the examples. Zolmitriptan was analyzed by an HPLC system (Shimadzu Scientific Instruments, MD), consisting of a UV detector (SPD-10A), reversed-phase C8 column, a pump (LC-10AD), and an automatic injector (SIL-10A). The method had been previously described (Vyas et. al., 2005). Briefly, the wavelength of the UV detector was 229 nm, the column temperature was maintained at 30° C., the flow rate was 1 ml/min and injection volume was 10 μl. The mobile phase used consisted of acetonitrile/phosphate buffer pH 7.5 (15/85).

[6] = acrylic adhesive matrix without functional group, zolmitriptan 4 wt%
[7] = adhesive matrix 87-2287 (hydroxyl functional group), zolmitriptan 4 wt%
[8] = adhesive matrix 87-2510 (hydroxyl functional group), zolmitriptan 4 wt%
[9] = adhesive matrix 87-2516 (hydroxyl functional group), zolmitriptan 4 wt%
[10] = drug concentration 4 wt% in 87-2510 matrix
[11] = drug concentration 5 wt% in 87-2510 matrix
[12] = drug concentration 7.5 wt% in 87-2510 matrix
[13] = drug concentration 10 wt% in 87-2510 matrix
[14] = matrix thickness 25 μm, 4% drug loading, 87-2510
[15] = matrix thickness 60 μm, 4% drug loading, 87-2510
[16] = matrix thickness 95 μm, 4% drug loading, 87-2510
[17] = matrix thickness 130 μm, 4% drug loading, 87-2510
[18] = matrix thickness 165 μm, 4% drug loading, 87-2510

SMILES: CN(C)CCc1c[nH]c2ccc(CS(=O)(=O)N3CCCC3)cc12 [Almotriptan]
bioavailable amount after oral ingestion [1]: 69%

SMILES: CN1CCC[C@@H]1Cc1c[nH]c2ccc(CCS(=O)(=O)c3ccccc3)cc12 [Eletriptan]
bioavailable amount after oral ingestion [1]: 50%

SMILES: CN[C@@H]1CCc2[nH]c3ccc(C(N)=O)cc3c2C1 [Frovatriptan]
bioavailable amount after oral ingestion ([1]; in females): 30%
bioavailable amount after oral ingestion ([1]; in males): 24%

SMILES: CNS(=O)(=O)CCc1ccc2[nH]cc(C3CCN(C)CC3)c2c1 [Naratriptan]
bioavailable amount after oral ingestion ([1]; in females): 74%
bioavailable amount after oral ingestion ([1]; in males): 63%

SMILES: CN(C)CCc1c[nH]c2ccc(Cn3cncn3)cc12 [Rizatriptan]
bioavailable amount after oral ingestion [1]: 47%

SMILES: CNS(=O)(=O)Cc1ccc2[nH]cc(CCN(C)C)c2c1 [Sumatriptan]
bioavailable amount after oral ingestion [1]: 14%

solubility in adhesive matrix [3]: inadequate
patch appearance ([4]; 4% drug load in 87-2510 matrix): clear
patch appearance ([4]; 5% or more drug load in 87-2510 matrix): milky
Flux [5, 6]: 6.16 μg/cm^2hr
Lag time [5, 6]: 10.7 h
Flux [5, 7]: 6.5 μg/cm^2hr
Lag time [5, 7]: 13.0 h
Flux [5, 8]: 15.6 μg/cm^2hr
Lag time [5, 8]: 9.3 h
Flux [5, 9]: 14.4 μg/cm^2hr
Lag time [5, 9]: 11.8 h
Flux ([5]; adhesive matrix with carboxyl functional group, zolmitriptan 4 wt%): 0.22 μg/cm^2hr
Flux [5, 10]: 13.5 μg/cm^2hr
Lag time [5, 10]: 8.2 h
Flux [5, 11]: 14.8 μg/cm^2hr
Lag time [5, 11]: 8.5 h
Flux [5, 12]: 15.8 μg/cm^2hr
Lag time [5, 12]: 8.4 h
Flux [5, 13]: 18.3 μg/cm^2hr
Lag time [5, 13]: 9.0 h
change of flux with drug loading ([5]; drug loading in 87-2510 matrix increased from 4% to 10%): did not change significantly
Flux [5, 14]: 1.2 μg/cm^2hr
Lag time [5, 14]: 9.0 h
Flux [5, 15]: 6.1 μg/cm^2hr
Lag time [5, 15]: 5.5 h
Flux [5, 16]: 11.7 μg/cm^2hr
Lag time [5, 16]: 5.2 h
Flux [5, 17]: 14.1 μg/cm^2hr
Lag time [5, 17]: 7.0 h
Flux [5, 18]: 13.0 μg/cm^2hr
Lag time [5, 18]: 7.4 h
SMILES: CN(C)CCc1c[nH]c2ccc(C[C@H]3COC(=O)N3)cc12 [Zolmitriptan]
bioavailable amount after oral ingestion [1]: 40%
pKa [2]: 9.64
solubility ([2]; in water and methanol): soluble
